Literature values in patent publication US20240032540A1, “MICROPARTICLE COMPOSITIONS COMPRISING FUNGICIDES” (BASF CORPORATION, priority 2020, published 2024).

O=C(NCCc1ncc(C(F)(F)F)cc1Cl)c1ccccc1C(F)(F)F [Fluopyram, N-{2-[3-chloro-5-(trifluoromethyl)-2-pyridyl]ethyl}-a,a,a-trifluoro-o-toluamide]
solubility in water: only sparingly soluble in water
